Test results taken from PMC3834941, “Pharmacokinetic Evaluation of a DSPE-PEG2000 Micellar Formulation of Ridaforolimus in Rat” (Pharmaceutics, 2012).

Key:
[1] = In vitro release by dialysis into PBS pH 7.4, 37 °C; format: physicochemical; details: free drug
Protocol: The in vitro release of the drug from DSPE-PEG2000 micelles into PBS (pH 7.4) was done by a dialysis method. Dialysis was carried out at 37 °C under sink condition using a 10-kDa MWCO dialysis tubing (SnakeSkin®, Thermo Scientific Inc., Rockford, IL, USA). The initial volume of drug-loaded micelles in the dialysis tubing was 2 mL and the sink solution was 4 L. The PBS was changed several times per day to maintain sink conditions. After pre-determined time intervals, samples were withdrawn from the dialysis bag and analyzed by a reversed phase HPLC column (TSK-GEL® ODS-100Z, Tosoh Bioscience) at 50 °C with UV detection at 290 nm.

[2] = set-up: method as in PMID 19228743; details: humans, clinical Phase I trials; cited from earlier work

CO[C@H]1C[C@@H]2CC[C@@H](C)[C@@](O)(O2)C(=O)C(=O)N2CCCC[C@H]2C(=O)O[C@H]([C@H](C)C[C@@H]2CC[C@@H](OP(C)(C)=O)[C@H](OC)C2)CC(=O)[C@H](C)/C=C(\C)[C@@H](O)[C@@H](OC)C(=O)[C@H](C)C[C@H](C)/C=C/C=C/C=C/1C [Ridaforolimus, ridaforolimus]
in vitro release t50% [1]: less than 20 min
in vitro release t90% [1]: 1 h
half-life [2]: 45 to 52 h
